Results reported in patent publication US20130165446A1 (priority 2010, published 2013).

What was measured:
[1] = target: T1, human nuclear receptor PPARα (Homo sapiens, UniProt Q07869); test: PPAR agonist activity measurement test (cell-free FRET cofactor assay), PPARα; assay type: biochemical; conditions: result in words
T1 sequence (Q07869 239-466 limits assumed): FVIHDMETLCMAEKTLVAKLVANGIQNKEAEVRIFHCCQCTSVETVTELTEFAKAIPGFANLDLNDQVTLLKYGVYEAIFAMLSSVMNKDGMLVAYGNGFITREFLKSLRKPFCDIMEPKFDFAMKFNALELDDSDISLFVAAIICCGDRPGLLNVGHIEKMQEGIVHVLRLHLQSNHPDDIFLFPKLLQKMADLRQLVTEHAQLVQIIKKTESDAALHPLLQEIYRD
Experimental: (§1) Agonist activity to the human nuclear receptors PPARα, β, and γ was measured using a biochemical fluorescent resonance energy transfer (FRET) assay system, which is a cell-free assay system, following a method described in the literature (for example, J. Biol. Chem., vol. 281 (8), pages 4920-4930 (2006)).
(§2) Specifically, after an N-terminal biotin-labeled peptide having cofactor peptide SRC1 (amino acid sequence 676-700), which includes the nuclear receptor bonding LXXLL motif region, and the fluorescent fusion proteins of the PPAR ligand binding domain were allowed to stand at room temperature for one hour, the energy transfer between the fluorescence donor and the fluorescence acceptor was measured to detect the test compound dose reaction to the cofactor.
(§3) A Perkin-Elmer Envision Multilabel Plate Reader was used for measurement. During measurement, 320 nm was used as the excitation wavelength, and 615 nm and 665 nm were used as the emission wavelengths. The test compound was dissolved in DMSO (dimethylsulfoxide) to a final solution concentration of 1%.

[2] = target: T2, human nuclear receptor PPARβ (Homo sapiens, UniProt Q03181); test: PPAR agonist activity measurement test (cell-free FRET cofactor assay), PPARβ; assay type: biochemical; conditions: result in words
T2 sequence (Q03181 211-439 limits assumed): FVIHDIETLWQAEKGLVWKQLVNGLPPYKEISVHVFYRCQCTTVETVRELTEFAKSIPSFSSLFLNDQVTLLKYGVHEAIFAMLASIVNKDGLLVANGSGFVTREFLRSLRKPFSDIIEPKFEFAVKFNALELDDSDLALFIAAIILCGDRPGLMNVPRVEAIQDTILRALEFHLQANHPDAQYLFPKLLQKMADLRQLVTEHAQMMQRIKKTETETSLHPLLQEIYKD
Experimental: as §1, §2, §3

[3] = tested on: ob/ob mice (C57b1/6ob/ob female mice); test: Glucose tolerance test (in vivo); conditions: for Glucose concentration: fasted ob/ob mice, oral load 2 g/kg glucose, Example 8 oral 10 mg/kg days 1-25 then 20 mg/kg days 26-33, rosiglitazone 3 mg/kg, n=8
Experimental: (§4) A test compound (the compound of Example 8, n=8) was given orally to 5- to 6-week-old ob/ob mice (C57b1/6ob/ob female mice) at a dose of 10 mg/kg for 1-25 days, then a test compound (the compound of Example 8) was given at 20 mg/kg for 26-33 days. An oral load test of 2 g/kg of glucose was carried out while the mice were fasted, and the blood glucose concentration was measured at −30, 0, 30, 60, 90, 120, and 180 minutes. For comparison, 3 mg/kg of rosiglitazone (n=8) were given for 1-25 days, then 3 mg/kg of rosiglitazone were given for 26-33 days, and the blood glucose concentration was measured in the same manner. Table 7 indicates the results.

[4] = target: T3, human recombinant (CHO cell) AT1 receptor (Homo sapiens, UniProt P30556); test: Angiotensin II inhibition test (radioligand binding to AT1 receptor); conditions: test compound concentration 10^−9 M; radioactive iodine-labeled angiotensin II, 37° C., sixty minutes; read-out: Inhibition rate (%)
T3 construct: expressed in transfected cells; host or cells: CHO cells
T3 sequence (P30556 1-359): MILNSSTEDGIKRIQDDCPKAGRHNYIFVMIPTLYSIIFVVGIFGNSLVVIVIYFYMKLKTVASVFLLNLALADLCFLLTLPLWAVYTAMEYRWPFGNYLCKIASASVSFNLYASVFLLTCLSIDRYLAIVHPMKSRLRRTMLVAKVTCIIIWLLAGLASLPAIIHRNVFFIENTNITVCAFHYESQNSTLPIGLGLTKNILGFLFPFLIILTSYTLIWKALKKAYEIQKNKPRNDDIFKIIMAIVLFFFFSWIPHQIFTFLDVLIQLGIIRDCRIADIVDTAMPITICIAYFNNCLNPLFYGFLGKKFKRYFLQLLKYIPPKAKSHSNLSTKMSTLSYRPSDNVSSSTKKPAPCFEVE
Experimental: A test of inhibition of angiotensin II to human recombinant (CHO cell) AT1 receptor following a method described in the literature (for example, Regul. Pept., vol. 44 (2), page 131 (1993)) was used to measure inhibitory activity to a test compound.
The ligand used was 10^−9 M of a test compound dissolved in 1% DMSO (dimethylsulfoxide). This was reacted with radioactive iodine-labeled angiotensin II at 37° C. for sixty minutes. Taking the inhibition rate of angiotensin II at 10 μM as nonspecific binding, the specific binding rate was calculated by subtracting this nonspecific portion. Table 6 indicates the results (the inhibition rate at test compound concentration: 10^−9 M)

[5] = target: T4, human nuclear receptor PPARγ (Homo sapiens, UniProt P37231); test: PPAR agonist activity measurement test (cell-free FRET cofactor assay), PPARγ; assay type: biochemical
T4 sequence (P37231 238-503 limits assumed): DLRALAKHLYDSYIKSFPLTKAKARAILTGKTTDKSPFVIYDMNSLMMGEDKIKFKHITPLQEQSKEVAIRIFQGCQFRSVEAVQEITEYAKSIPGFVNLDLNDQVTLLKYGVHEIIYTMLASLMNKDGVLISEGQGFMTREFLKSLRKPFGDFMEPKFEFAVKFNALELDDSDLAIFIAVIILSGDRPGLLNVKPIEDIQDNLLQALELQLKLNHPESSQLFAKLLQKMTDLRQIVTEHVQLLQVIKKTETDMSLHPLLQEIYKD
Experimental: as §1, §2, §3

[6] = Weight gain test (in vivo); conditions: ob/ob mice; for Weight gain: Example 8 10 mg/kg, rosiglitazone 3 mg/kg, days 1-25
Experimental: as §4
The body weight of mice was measured when 10 mg/kg of the same test compound (the compound of Example 8) were given for 1-25 days, and 3 mg/kg of rosiglitazone were given for 1-25 days. Table 8 indicates the results.

Row | SMILES | activity against PPARα [1] | activity against PPARβ [2] | Glucose concentration ([3]; 0 min) [mmol/L] | Glucose concentration ([3]; 30 min) [mmol/L] | Glucose concentration ([3]; 60 min) [mmol/L] | Glucose concentration ([3]; 120 min) [mmol/L] | Glucose concentration ([3]; 180 min) [mmol/L] | increase in blood glucose concentration compared to the control ([3]; ob/ob mice, oral glucose load 2 g/kg, result in words) | Glucose concentration ([3]; −30 min) [mmol/L] | inhibition at 0.001 µM [4] [%] | activity against PPARγ ([5]; FRET agonist assay, result in words) | EC50 ([5]; FRET, cofactor peptide SRC1, twelve concentrations 50 μM to 0 nM, 1% DMSO, read-out: ED50 (the source's name)) [µM] | Weight gain ([6]; day 0) [g] | Weight gain ([6]; day 4) [g] | Weight gain ([6]; day 11) [g] | Weight gain ([6]; day 14) [g] | Weight gain ([6]; day 18) [g] | Weight gain ([6]; day 24) [g] | weight gain compared to the control ([6]; 10 mg/kg days 1-25, result in words) | weight gain compared to rosiglitazone ([6]; 10 mg/kg days 1-25 vs rosiglitazone 3 mg/kg, result in words)
1 | CCCc1nc(CSc2ccc(Oc3ccc4nc(COc5ccc(CC6SC(=O)NC6=O)cc5)n(C)c4c3)cc2)c(C(=O)OCC)n1Cc1ccc(-c2ccccc2-c2nnn[nH]2)cc1 (stereo not drawn) [Example 8, 4-[4-{2-[4-(2,4-dioxothiazolidin-5-ylmethyl)phenoxymethyl]-1-methyl-1H-benzimidazol-6-yloxy}phenylthiomethyl]-2-propyl-1-[2′-(1H-tetrazol-5-yl)biphenyl-4-ylmethyl]-1H-imidazole-5-carboxylic acid ethyl ester] | did not exhibit activity | did not exhibit activity | 6.4 ± 0.6 | 12.5 ± 0.9 | 7.3 ± 0.9 | 5.5 ± 0.6 | 6.1 ± 0.6 | significantly inhibited increase in blood glucose concentration compared to the control | 7.6 ± 0.9 | 73 | exhibited activity only against PPARy | 0.114 | 0 | 0.8 ± 0.0 | 3.3 ± 0.2 | 4.2 ± 0.3 | 5.9 ± 0.3 | 6.8 ± 0.2 | nearly comparable weight gain to the control | significantly inhibited weight gain compared to rosiglitazone
2 | CN(CCOc1ccc(CC2SC(=O)NC2=O)cc1)c1ccccn1 (stereo not drawn) [Rosiglitazone, rosiglitazone, reference compound] |  |  | 4.6 ± 0.3 | 12.5 ± 0.9 | 4.9 ± 0.3 | 4.6 ± 0.1 | 4.6 ± 0.1 |  | 4.6 ± 0.3 |  |  |  | 0 | 1.2 ± 0.1 | 4.5 ± 0.3 | 5.8 ± 0.1 | 7.5 ± 0.2 | 8.9 ± 0.2 |  | 
3 | CCCc1nc(CSc2ccc(Oc3ccc4nc(COc5ccc(CC6SC(=O)NC6=O)cc5)n(C)c4c3)cc2)c(C(=O)OC)n1Cc1ccc(-c2ccccc2-c2nnn[nH]2)cc1 (stereo not drawn) [Example 30, 4-[4-{2-[4-(2,4-dioxothiazolidin-5-ylmethyl)phenoxymethyl]-1-methyl-1H-benzimidazol-6-yloxy}phenylthiomethyl]-2-propyl-1-[2′-(1H-tetrazol-5-yl)biphenyl-4-ylmethyl]-1H-imidazole-5-carboxylic acid methyl ester] |  |  |  |  |  |  |  |  |  | 66 |  |  |  |  |  |  |  |  |  | 
